Measured values from patent US20080214648A1, “Hiv Prodrugs Cleavable by Cd26” (priority 2003, published 2008).

Columns and labels:
purified CD26 = purified CD26 (Homo sapiens, UniProt P27487); test: Conversion of Val-Pro-PI 1 to PI 1 by purified CD26; assay type: biochemical
Description: (§1) A: CD26; B: bovine serum; C: human serum (both 10% in PBS).
(§2) Ten percent BS or HS converted 40 to 70% of Val-Pro-PI 1 to PI 1 in one hour (FIG. 10). Two percent BS and HS converted Val-Pro-PI 1 to PI 1 by 8% and 25%, respectively. After 4 hrs, 35% and 95% of compound was hydrolyzed by BS and HS, respectively (FIG. 11).
(§3) Compounds were separated on a Reverse Phase RP-8 (Merck) using a gradient with buffer A (50 mM NaH2PO4+5 mM heptane sulfonic acid pH 3.2) and buffer B (acetonitrile).
(§4) 0→2 min: 2% buffer B; 2→8 min: 20% buffer B; 8→10 min: 25% buffer B; 10→12 min: 35% buffer B; 12→30 min: 50% buffer B; 30→35 min: 50% buffer B; 35→40 min: 2% buffer B; 40→45 min: 2% buffer B. Rt values of Val-Pro-PI 1 and PI 1 were 18.7 and 17.7 min, respectively.

[1] = Conversion of Val-Pro-PI 1 to PI 1 by bovine serum diluted in PBS; assay type: in vitro ADME; settings: 2% bovine serum (BS) in PBS
Description: as §1
(§5) FIG. 3a: Bovine serum (2% in PBS), FIG. 3b: Human serum (2% in PBS).
as §2, §3, §4

[2] = Conversion of Val-Pro-PI 1 to PI 1 by human serum diluted in PBS; assay type: in vitro ADME; settings: 2% human serum (HS) in PBS
Description: as §1, §5, §2, §3, §4

CD26 = CD26 (Homo sapiens, UniProt P27487); test: Competitive inhibition of CD26-catalysed conversion of GP-pNA to GP+pNA (purified CD26); assay type: biochemical
Sequence of CD26 (P27487 whole entry, species assumed): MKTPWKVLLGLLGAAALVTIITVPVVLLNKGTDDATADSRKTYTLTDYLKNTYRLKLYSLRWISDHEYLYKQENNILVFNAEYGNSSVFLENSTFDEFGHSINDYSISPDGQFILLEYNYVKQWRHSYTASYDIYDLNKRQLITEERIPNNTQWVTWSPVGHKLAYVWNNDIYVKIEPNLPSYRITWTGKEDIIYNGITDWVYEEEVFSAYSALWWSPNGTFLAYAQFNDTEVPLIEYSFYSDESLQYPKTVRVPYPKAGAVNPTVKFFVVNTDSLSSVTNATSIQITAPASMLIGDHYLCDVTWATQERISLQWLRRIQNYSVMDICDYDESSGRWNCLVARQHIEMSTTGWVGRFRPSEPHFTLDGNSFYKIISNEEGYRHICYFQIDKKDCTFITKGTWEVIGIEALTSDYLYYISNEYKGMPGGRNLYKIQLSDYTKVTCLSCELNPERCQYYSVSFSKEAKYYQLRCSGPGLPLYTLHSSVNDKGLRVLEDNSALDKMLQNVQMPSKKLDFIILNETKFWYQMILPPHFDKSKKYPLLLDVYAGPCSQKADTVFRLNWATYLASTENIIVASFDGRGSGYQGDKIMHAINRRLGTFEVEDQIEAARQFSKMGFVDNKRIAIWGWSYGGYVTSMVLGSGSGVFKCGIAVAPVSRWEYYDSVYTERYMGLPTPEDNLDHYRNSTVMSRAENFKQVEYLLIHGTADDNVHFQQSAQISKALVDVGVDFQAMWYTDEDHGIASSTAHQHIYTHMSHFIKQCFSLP
Description: (§6) The CD26 catalytic reaction was measured by recording the increase of absorption caused by pNA release at 400 nm.

CD26 in bovine serum = target: T1, CD26 in bovine serum (Bos taurus, UniProt P81425); test: Inhibition of GP-pNA conversion to pNA by 2% bovine serum in PBS; assay type: biochemical; settings: 2% BS in PBS, compared with purified CD26
T1 construct: Conversion of GP-pNA to pNA by two percent BS in PBS; from tissue; host or cells: bovine serum, 2% in PBS
T1 sequence (P81425 38-765): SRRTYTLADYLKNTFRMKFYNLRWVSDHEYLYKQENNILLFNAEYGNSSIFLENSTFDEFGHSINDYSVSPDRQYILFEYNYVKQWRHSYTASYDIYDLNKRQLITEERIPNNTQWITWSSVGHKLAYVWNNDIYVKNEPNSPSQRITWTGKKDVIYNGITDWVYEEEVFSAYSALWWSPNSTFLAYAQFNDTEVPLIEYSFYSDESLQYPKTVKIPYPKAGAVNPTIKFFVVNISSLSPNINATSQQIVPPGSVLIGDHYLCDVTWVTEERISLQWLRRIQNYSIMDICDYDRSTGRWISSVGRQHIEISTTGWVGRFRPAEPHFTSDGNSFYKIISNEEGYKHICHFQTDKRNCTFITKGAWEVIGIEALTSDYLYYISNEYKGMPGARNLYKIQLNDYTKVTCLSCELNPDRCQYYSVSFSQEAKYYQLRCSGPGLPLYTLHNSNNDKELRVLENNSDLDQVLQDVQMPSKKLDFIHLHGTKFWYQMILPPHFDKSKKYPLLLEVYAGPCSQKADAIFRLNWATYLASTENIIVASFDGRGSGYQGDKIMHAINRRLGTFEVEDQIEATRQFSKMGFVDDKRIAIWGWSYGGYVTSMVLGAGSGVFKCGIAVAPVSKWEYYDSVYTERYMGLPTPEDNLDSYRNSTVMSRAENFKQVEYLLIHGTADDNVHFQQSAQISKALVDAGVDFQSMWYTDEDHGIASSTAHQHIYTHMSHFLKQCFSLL
Description: as §6

CD26 in human serum = target: T2, CD26 in human serum (Homo sapiens, UniProt P27487); test: Inhibition of GP-pNA conversion to pNA by 2% human serum in PBS; assay type: biochemical; settings: HS 2% in PBS
T2 construct: from tissue; host or cells: human serum, 2% in PBS
T2 sequence (P27487 39-766 limits assumed): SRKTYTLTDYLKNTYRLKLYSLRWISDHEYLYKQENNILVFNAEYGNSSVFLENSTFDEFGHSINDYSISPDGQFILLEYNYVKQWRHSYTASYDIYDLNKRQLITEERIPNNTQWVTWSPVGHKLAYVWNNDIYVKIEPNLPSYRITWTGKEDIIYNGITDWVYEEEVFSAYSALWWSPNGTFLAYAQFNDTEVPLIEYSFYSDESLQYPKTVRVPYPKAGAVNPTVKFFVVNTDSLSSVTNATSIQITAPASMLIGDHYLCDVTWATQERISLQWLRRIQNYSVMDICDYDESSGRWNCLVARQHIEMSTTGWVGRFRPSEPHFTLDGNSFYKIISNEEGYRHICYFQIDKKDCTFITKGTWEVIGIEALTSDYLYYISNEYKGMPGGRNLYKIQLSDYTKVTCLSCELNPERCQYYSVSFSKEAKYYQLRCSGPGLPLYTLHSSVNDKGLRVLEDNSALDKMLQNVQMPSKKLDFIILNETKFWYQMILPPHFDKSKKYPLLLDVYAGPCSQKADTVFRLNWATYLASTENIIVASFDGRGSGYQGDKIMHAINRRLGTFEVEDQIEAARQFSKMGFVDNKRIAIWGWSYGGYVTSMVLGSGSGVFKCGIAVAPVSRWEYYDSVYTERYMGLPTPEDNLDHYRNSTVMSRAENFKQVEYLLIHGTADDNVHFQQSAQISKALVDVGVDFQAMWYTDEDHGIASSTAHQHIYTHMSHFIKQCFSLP
Description: as §6

[3] = time not printed (preceding sentence: one hour)

Sequence of purified CD26 (P27487 whole entry, species assumed): as the sequence (P27487 whole entry, species assumed) above

CC(C)CN(C[C@@H](O)[C@H](Cc1ccccc1)NC(=O)O[C@H]1CO[C@H]2OCC[C@H]21)S(=O)(=O)c1ccc(CNC(=O)[C@@H]2CCCN2C(=O)[C@@H](N)C(C)C)cc1 [Val-Pro-PI 1]
time to complete conversion of Val-Pro-PI 1 to PI 1 (purified CD26): ≤ 60 min
compound hydrolyzed ([1]; after 4 hrs): 35%
conversion of Val-Pro-PI 1 to PI 1 [1, 3]: 8%
compound hydrolyzed ([2]; after 4 hrs): 95%
conversion of Val-Pro-PI 1 to PI 1 [2, 3]: 25%
inhibition of release of pNA from GP-pNA (CD26; 20 μM Val-Pro-PI 1, 50 μM GP-pNA): could inhibit
competition with substrate GP-pNA for CD26 (CD26; 100 μM Val-Pro-PI 1, 50 μM GP-pNA): efficiently competed
inhibition of conversion of GP-pNA to pNA (CD26 in bovine serum): even more efficiently inhibited
inhibition of GP-pNA conversion to pNA (CD26 in human serum): competitively inhibited
